Assay results reported in patent publication US20040175353A1, “Cyanoacrylate compositions for prophylactic or therapeutic treatment of diseases manifesting themselves in and/or damage cutaneous tissue” (priority 2001, published 2004).

System: HSV-I infection around the mouth
Assay: Initial studies: HSV-I infection around the mouth treated with ethyl cyanoacrylate (Examples 1-3)
Assay type: in vivo, human
Procedure: Examples 1-3 are initial studies describing three patient groups at different stages of development of HSV-I infection around the mouth which has been treated with ethyl cyanoacrylate (LOCTITE 411, Henkel Loctite Adhesive Ltd.). The infected areas were applied about ⅓ drop of liquid ethyl cyanoacrylate by means of a toothpick and the polymerization was allowed to pass off.
Patient group 1 consisted of three patients without visible symptoms. The group was treated prophylactically as mentioned above under latent HSV-I infection, pronounced prickling and itching in the mucous membrane at the lip being the cause of the treatment.
Patient group 2 consisted of 2 patients with visible blisters in the corner of the mouth due to infection with HSV-I. The group was treated initially for 3 hours, after which the ethyl cyanoacrylate coat with content of virus and tissue was removed. The treatment was repeated 2 times for 24 hours, after which the coat was removed.
Patient group 3 consisted of 4 patients all having large suppurating crusts in a large area around the mouth. The group were initially treated by applying liquid ethyl cyanoacrylate which was allowed to polymerise. The polymer coat with adhering crust was removed immediately after polymerization, and the treatment repeated 4 times for 24 hours.

**Q.** How did the “development of visible blisters or wounds” value (Patient group 1: three patients, latent HSV-I infection without visible symptoms, prophylactic treatment, coat removed after overnight) turn out when C=C(C#N)C(=O)OCC [ethyl cyanoacrylate] was run?
**A.** no patients in Patient group 1 developed visible blisters or wounds

**Q.** And the “visible traces, symptoms and scar formation after treatment” value (Patient group 2: 2 patients with visible blisters in corner of mouth, 3 hours, then repeated 2 times for 24 hours)?
**A.** no visible traces after the outbreak and both patients were free of symptoms without scar formation

**Q.** And the “symptoms and scar formation after treatment” value (Patient group 3, fourth patient, treated for further 24 hours)?
**A.** subsequently had no symptoms or scar formation

**Q.** And the “symptoms and scar formation after treatment” value (Patient group 3: 4 patients with large suppurating crusts, crust pulled off, treatment repeated 4 times for 24 hours)?
**A.** three patients had no symptoms or scar formation
